{"source": "patent US11530210B2", "about": "“Substituted heteroaromatic pyrazolo-pyridines and their use as GLUN2B receptor modulators” (JANSSEN PHARMACEUTICA NV, priority 2019, dated 2022)", "note": "Structures can show the parent of a compound that is named as a salt.", "data": [{"target": "T1, human GluN1/GluN2B NMDA receptors (Homo sapiens, UniProt Q13224)", "T1 construct": "expressed in transfected cells", "T1 sequence (Q13224 27-1484, other chains not shown)": "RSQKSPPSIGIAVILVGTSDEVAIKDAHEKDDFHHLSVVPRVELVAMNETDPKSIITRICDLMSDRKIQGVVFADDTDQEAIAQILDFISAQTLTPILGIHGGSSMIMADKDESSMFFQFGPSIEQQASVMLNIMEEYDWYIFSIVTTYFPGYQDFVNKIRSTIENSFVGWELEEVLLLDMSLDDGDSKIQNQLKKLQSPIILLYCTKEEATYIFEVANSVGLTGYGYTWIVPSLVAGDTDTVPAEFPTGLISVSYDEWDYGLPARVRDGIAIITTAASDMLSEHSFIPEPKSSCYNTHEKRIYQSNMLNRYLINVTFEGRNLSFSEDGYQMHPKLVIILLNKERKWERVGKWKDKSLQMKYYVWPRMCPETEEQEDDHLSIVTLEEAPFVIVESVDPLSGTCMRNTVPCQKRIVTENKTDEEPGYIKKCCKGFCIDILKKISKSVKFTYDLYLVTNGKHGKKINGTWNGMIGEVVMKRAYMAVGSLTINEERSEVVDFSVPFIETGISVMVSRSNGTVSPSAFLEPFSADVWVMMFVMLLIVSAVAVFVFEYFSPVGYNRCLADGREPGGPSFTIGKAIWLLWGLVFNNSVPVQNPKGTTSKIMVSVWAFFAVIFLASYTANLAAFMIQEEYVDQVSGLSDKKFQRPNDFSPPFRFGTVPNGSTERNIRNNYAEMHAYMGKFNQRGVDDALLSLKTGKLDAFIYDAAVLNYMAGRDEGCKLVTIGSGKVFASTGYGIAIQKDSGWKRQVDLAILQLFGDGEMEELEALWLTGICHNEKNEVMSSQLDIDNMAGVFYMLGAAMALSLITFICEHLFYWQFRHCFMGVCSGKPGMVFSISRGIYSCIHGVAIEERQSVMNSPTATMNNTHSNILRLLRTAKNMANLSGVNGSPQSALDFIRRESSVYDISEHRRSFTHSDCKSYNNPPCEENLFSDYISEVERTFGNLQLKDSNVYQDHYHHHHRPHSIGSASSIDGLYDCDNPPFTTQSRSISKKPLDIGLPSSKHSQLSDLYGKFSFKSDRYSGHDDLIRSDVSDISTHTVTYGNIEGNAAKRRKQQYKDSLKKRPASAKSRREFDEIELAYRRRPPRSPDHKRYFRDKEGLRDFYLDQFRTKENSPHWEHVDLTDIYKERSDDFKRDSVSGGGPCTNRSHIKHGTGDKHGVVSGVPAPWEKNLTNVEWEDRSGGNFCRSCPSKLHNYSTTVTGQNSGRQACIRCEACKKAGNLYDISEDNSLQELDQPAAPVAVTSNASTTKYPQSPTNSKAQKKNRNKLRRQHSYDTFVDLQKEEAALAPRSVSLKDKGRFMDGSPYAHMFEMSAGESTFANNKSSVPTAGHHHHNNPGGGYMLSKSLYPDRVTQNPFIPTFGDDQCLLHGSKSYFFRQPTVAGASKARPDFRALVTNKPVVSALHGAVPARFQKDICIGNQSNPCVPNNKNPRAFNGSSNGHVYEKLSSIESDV", "experiment": "Calcium flux (FLIPR) assay on cloned human NR1/GluN2B ion channels expressed in mammalian cells (standard and HTS variants)", "format": "cell-based", "details": "cells expressing human GluN1/GluN2B, glutamate and glycine co-agonists", "experimental": "Effects of Test Articles on Cloned Human NR1/GuN2B Ion Channels Expressed in Mammalian Cells\nNMDA receptors are ion channels that are highly permeable to Ca^2+ ions, rendering it possible to monitor NMDA receptor function using cell-based calcium flux assay. In this assay, co-agonists glutamate and glycine are added to cells heterologously expressing human GluN1/GluN2B NMDA receptors to initiate cellular Ca^2+ influx. The time course of the changes in intracellular calcium is measured using a fluorescent dye and a FLIPR (Fluorometric Imaging Plate Reader) device.\nTwenty-four hours before measurements, the expression of the NMDA receptors in the stable cell line is induced with Tet-On inducible system in the presence of a non-selective NMDA receptor blocker. On the day of the experiment, cell culture media is carefully washed, and the cells are loaded with Calcium 5 Dye Kit (Molecular Devices) in dye loading buffer containing 137 mM NaCl, 4 mM KCl, 2 mM CaCl2, 0.5 mM MgCl2 (standard assay) or 1.5 mM MgCl2 (HTS assay), 10 mM HEPES and 5 mM D-glucose; pH 7.4. After 1 h incubation at the room temperature, the dye is washed away with the assay buffer (137 mM NaCl (standard assay) or 150 mM (HTS assay), 4 mM KCl (standard assay) or 3 mM (HTS assay), 2 mM CaCl2), 0.01 mM EDTA, 10 mM HEPES and 5 mM D-glucose; pH 7.4) In the FLIPR TETRA reader, various concentrations of the test compounds are added to the cells for 5 min while fluorescence is monitored to detect potential agonist activity. Next, co-agonists, glutamate and glycine are added for another 5 minutes. The concentration of glutamate corresponding to ˜EC40 (standard assay) or EC40 (HTS assay) is used to maximize the assay's signal window and ability to detect NMDA receptor antagonists and negative allosteric modulators. A saturating concentration (10 μM) of glycine is also present in the assay. A non-selective NMDA receptor antagonist, (+)MK-801 is used as a positive control for antagonist activity. The fluorescent signal in the presence of test compounds is quantified and normalized to the signal defined by the appropriate control wells.", "units": {"IC50": "nM"}, "values": [{"smiles": "FC(F)Oc1cc(-c2cnc3cnn(Cc4cccnn4)c3c2)ccc1Cl", "note": "[Example 265, 6-[4-Chloro-3-(difluoromethoxy)phenyl]-1-(pyridazin-3-ylmethyl)pyrazolo[4,3-b]pyridine]", "IC50": 115}, {"smiles": "FC(F)Oc1cc(-c2cnc3cnn(Cc4cncc(Cl)c4)c3c2)ccc1Cl", "note": "[Example 243, 6-[4-Chloro-3-(difluoromethoxy)phenyl]-1-[(5-chloro-3-pyridyl)methyl]pyrazolo[4,3-b]pyridine]", "IC50": 146}, {"smiles": "Cc1nnc(Cn2ncc3ncc(-c4ccc(F)c(Cl)c4)cc32)o1", "note": "[Example 92, 2-[[6-(3-Chloro-4-fluoro-phenyl)pyrazolo[4,3-b]pyridin-1-yl]methyl]-5-methyl-1,3,4-oxadiazole]", "IC50": 90}, {"smiles": "CC(F)(F)c1cc(-c2cnc3cnn(Cc4cncc(Cl)c4)c3c2)ccc1Cl", "note": "[Example 237, 6-[4-Chloro-3-(1,1-difluoroethyl)phenyl]-1-[(5-chloro-3-pyridyl)methyl]pyrazolo[4,3-b]pyridine]", "IC50": 200}, {"smiles": "Fc1ccc(-c2cnc3cnn(Cc4nnc(C(F)F)s4)c3c2)cc1C(F)F", "note": "[Example 129, 2-(Difluoromethyl)-5-[[6-[3-(difluoromethyl)-4-fluoro-phenyl]pyrazolo[4,3-b]pyridin-1-yl]methyl]-1,3,4-thiadiazole]", "IC50": 17}, {"smiles": "COc1cc(Cn2ncc3ncc(-c4ccc(F)c(OC(F)F)c4)cc32)ncn1", "note": "[Example 289, 6-[3-(Difluoromethoxy)-4-fluoro-phenyl]-1-[(6-methoxypyrimidin-4-yl)methyl]pyrazolo[4,3-b]pyridine]", "IC50": 350}, {"smiles": "Fc1ccc(-c2cnc3cnn(Cc4cncc(C(F)(F)F)c4)c3c2)cc1C(F)F", "note": "[Example 211, 6-[3-(Difluoromethyl)-4-fluoro-phenyl]-1-[[5-(trifluoromethyl)-3-pyridyl]methyl]pyrazolo[4,3-b]pyridine]", "IC50": 47}, {"smiles": "Cc1nnc(Cn2ncc3ncc(-c4ccc(F)c(C)c4)cc32)s1", "note": "[Example 132, 2-[[6-(4-Fluoro-3-methyl-phenyl)pyrazolo[4,3-b]pyridin-1-yl]methyl]-5-methyl-1,3,4-thiadiazole]", "IC50": 33}, {"smiles": "Fc1cccc(-c2cnc3cnn(Cc4cccnn4)c3c2)c1", "note": "[Example 256, 6-(3-Fluorophenyl)-1-(pyridazin-3-ylmethyl)pyrazolo[4,3-b]pyridine trifluoroacetate salt]", "IC50": 1410}, {"smiles": "Cc1cc(Cn2ncc3ncc(-c4ccc(F)cc4)cc32)no1", "note": "[Example 43, 3-[[6-(4-Fluorophenyl)pyrazolo[4,3-b]pyridin-1-yl]methyl]-5-methyl-isoxazole]", "IC50": 139}, {"smiles": "Cc1nnc(Cn2nc(F)c3ncc(-c4ccc(F)c(Cl)c4)cc32)o1", "note": "[Example 93, 2-[[6-(3-Chloro-4-fluoro-phenyl)-3-fluoro-pyrazolo[4,3-b]pyridin-1-yl]methyl]-5-methyl-1,3,4-oxadiazole]", "IC50": 87}, {"smiles": "Cc1ccc(Cn2ncc3ncc(-c4ccc(F)c(C(F)F)c4)cc32)nn1", "note": "[Example 262, 6-[3-(Difluoromethyl)-4-fluoro-phenyl]-1-[(6-methylpyridazin-3-yl)methyl]pyrazolo[4,3-b]pyridine]", "IC50": 273}, {"smiles": "Cc1nnc(Cn2ncc3ncc(-c4ccc(F)c(C)c4F)cc32)o1", "note": "[Example 118, 2-[[6-(2,4-Difluoro-3-methyl-phenyl)pyrazolo[4,3-b]pyridin-1-yl]methyl]-5-methyl-1,3,4-oxadiazole]", "IC50": 35}, {"smiles": "Cc1cncc(Cn2ncc3ncc(-c4ccc(F)c(C)c4)cc32)c1", "note": "[Example 180, 6-(4-Fluoro-3-methyl-phenyl)-1-[(5-methyl-3-pyridyl)methyl]pyrazolo[4,3-b]pyridine trifluoroacetate salt]", "IC50": 62}, {"smiles": "Cc1cncc(Cn2ncc3ncc(-c4cc(C)cs4)cc32)c1", "note": "[Example 138, 1-[(5-Methyl-3-pyridyl)methyl]-6-(4-methyl-2-thienyl)pyrazolo[4,3-b]pyridine]", "IC50": 159}, {"smiles": "Cc1cnc(Cn2ncc3ncc(-c4ccc(F)c(C(F)F)c4)cc32)s1", "note": "[Example 65, 2-[[6-[3-(Difluoromethyl)-4-fluoro-phenyl]pyrazolo[4,3-b]pyridin-1-yl]methyl]-5-methyl-thiazole]", "IC50": 84}, {"smiles": "Fc1ccc(Cn2ncc3ncc(-c4ccc(F)c(C(F)F)c4)cc32)cn1", "note": "[Example 201, 6-(3-(Difluoromethyl)-4-fluorophenyl)-1-((6-fluoropyridin-3-yl)methyl)-1H-pyrazolo[4,3-b]pyridine]", "IC50": 16}, {"smiles": "Cc1c(F)ccc(-c2cnc3cnn(Cc4cncc(F)c4)c3c2)c1F", "note": "[Example 249, 6-(2,4-Difluoro-3-methyl-phenyl)-1-[(5-fluoro-3-pyridyl)methyl]pyrazolo[4,3-b]pyridine trifluoroacetate salt]", "IC50": 40}, {"smiles": "Fc1cccc(-c2cnc3cnn(Cc4ccccn4)c3c2)c1", "note": "[Example 152, 6-(3-Fluorophenyl)-1-(2-pyridylmethyl)pyrazolo[4,3-b]pyridine]", "IC50": 2180}, {"smiles": "Fc1ccc(-c2cnc3cnn(Cc4cccnc4)c3c2)cc1OC(F)F", "note": "[Example 223, 6-[3-(Difluoromethoxy)-4-fluoro-phenyl]-1-(3-pyridylmethyl)pyrazolo[4,3-b]pyridine]", "IC50": 38}, {"smiles": "Fc1ccc(-c2cnc3cnn(Cc4nnc(-c5ccccc5)o4)c3c2)cc1C(F)F", "note": "[Example 103, 2-[[6-[3-(Difluoromethyl)-4-fluoro-phenyl]pyrazolo[4,3-b]pyridin-1-yl]methyl]-5-phenyl-1,3,4-oxadiazole]", "IC50": "> 2990"}, {"smiles": "Fc1cncc(Cn2ncc3ncc(-c4cc(F)c(F)c(F)c4)cc32)c1", "note": "[Example 251, 1-[(5-Fluoro-3-pyridyl)methyl]-6-(3,4,5-trifluorophenyl)pyrazolo[4,3-b]pyridine]", "IC50": 25}, {"smiles": "COc1nnc(Cn2ncc3ncc(-c4ccc(F)c(C(F)F)c4)cc32)s1", "note": "[Example 127, 2-[[6-[3-(difluoromethyl)-4-fluoro-phenyl]pyrazolo[4,3-b]pyridin-1-yl]methyl]-5-methoxy-1,3,4-thiadiazole]", "IC50": 850}, {"smiles": "Fc1ccc(-c2cnc3cnn(Cc4cnccn4)c3c2)cc1C(F)F", "note": "[Example 272, 6-[3-(Difluoromethyl)-4-fluoro-phenyl]-1-(pyrazin-2-ylmethyl)pyrazolo[4,3-b]pyridine]", "IC50": 37}, {"smiles": "Fc1ccc(-c2cnc3cnn(Cc4cccnn4)c3c2)cc1F", "note": "[Example 266, 6-(3,4-Difluorophenyl)-1-(pyridazin-3-ylmethyl)pyrazolo[4,3-b]pyridine]", "IC50": 670}, {"smiles": "Cc1nnc(Cn2ncc3ncc(-c4cccc(C(C)(F)F)c4)cc32)o1", "note": "[Example 82, 2-[[6-[3-(1,1-Difluoroethyl)phenyl]pyrazolo[4,3-b]pyridin-1-yl]methyl]-5-methyl-1,3,4-oxadiazole]", "IC50": 160}, {"smiles": "COc1cncc(Cn2ncc3ncc(-c4ccc(F)c(C(F)(F)F)c4)cc32)c1", "note": "[Example 234, 6-[4-Fluoro-3-(trifluoromethyl)phenyl]-1-[(5-methoxy-3-pyridyl)methyl]pyrazolo[4,3-b]pyridine]", "IC50": 92}, {"smiles": "N#Cc1cncc(Cn2ncc3ncc(-c4cccc(C(F)F)c4)cc32)c1", "note": "[Example 157, 5-[[6-[3-(Difluoromethyl)phenyl]pyrazolo[4,3-b]pyridin-1-yl]methyl]pyridine-3-carbonitrile]", "IC50": 64}, {"smiles": "COc1cc(Cn2ncc3ncc(-c4ccc(F)c(C(F)F)c4)cc32)ncn1", "note": "[Example 288, 6-[3-(Difluoromethyl)-4-fluoro-phenyl]-1-[(6-methoxypyrimidin-4-yl)methyl]pyrazolo[4,3-b]pyridine]", "IC50": 182}, {"smiles": "Cc1ncc(Cn2ncc3ncc(-c4cccc(C(F)(F)F)c4)cc32)cn1", "note": "[Example 4, 1-[(2-Methylpyrimidin-5-yl)methyl]-6-[3-(trifluoromethyl)phenyl]pyrazolo[4,3-b]pyridine trifluoroacetate salt]", "IC50": 4670}, {"smiles": "COc1cncc(Cn2ncc3ncc(-c4ccc(Cl)c(C(F)F)c4)cc32)c1", "note": "[Example 232, 6-[4-chloro-3-(Difluoromethyl)phenyl]-1-[(5-methoxy-3-pyridyl)methyl]pyrazolo[4,3-b]pyridine]", "IC50": 40}, {"smiles": "N#Cc1cncc(Cn2ncc3ncc(-c4ccc(Cl)c(OC(F)F)c4)cc32)c1", "note": "[Example 241, 5-[[6-[4-Chloro-3-(difluoromethoxy)phenyl]pyrazolo[4,3-b]pyridin-1-yl]methyl]pyridine-3-carbonitrile]", "IC50": 151}, {"smiles": "Cc1noc(Cn2ncc3ncc(-c4ccc(F)c(C(F)(F)F)c4)cc32)n1", "note": "[Example 110, 5-[[6-[4-Fluoro-3-(trifluoromethyl)phenyl]pyrazolo[4,3-b]pyridin-1-yl]methyl]-3-methyl-1,2,4-oxadiazole]", "IC50": 400}, {"smiles": "Cc1nonc1Cn1ncc2ncc(-c3ccc(F)c(C(F)F)c3)cc21", "note": "[Example 98, 3-[[6-[3-(Difluoromethyl)-4-fluoro-phenyl]pyrazolo[4,3-b]pyridin-1-yl]methyl]-4-methyl-1,2,5-oxadiazole]", "IC50": 34}]}]}
